Laboratory results: patent US4656250A, “[Nle^8, Nle^18, Tyr^34 or Phe^34 ]-h-PTH peptide derivatives” (Toyo Jozo Kabushiki Kaisha, priority 1983, dated 1987)

Tests used:
[1] = cited from earlier work; for PTH / hormonal activity compared with natural h-PTH: prior art, Jap. Pat. Unexam. Publ. No. 55-113753
PTH receptor = target: T1, PTH receptor (Rattus norvegicus, UniProt P25961); assay: Assay of PTH activity: c-AMP generated on reaction with rat renal cortex PTH receptor preparation, parallel line assay against standard bovine PTH(1-34); assay type: biochemical; details: for h-PTH activity, times stronger than known h-PTH(1-34) and [Nle8, Nle18]-h-PTH(1-34): compared with h-PTH(1-34) and [Nle8, Nle18]-h-PTH(1-34); for PTH Activity: unlabelled sample, vs standard bovine PTH(1-34); for PTH Activity / PTH Activity After Labelling with 125I: rat renal cortex PTH receptor, c-AMP generation; for PTH Activity After Labelling with 125I: after labelling with iodine-125 (chloramine T)
T1 construct: A surface membrane was removed, and the renal cortex carved out and ice-cooled; from tissue; host or cells: rat (SD, male) renal cortex, crude membrane fraction (2200 x g precipitate)
T1 sequence (P25961 27-591): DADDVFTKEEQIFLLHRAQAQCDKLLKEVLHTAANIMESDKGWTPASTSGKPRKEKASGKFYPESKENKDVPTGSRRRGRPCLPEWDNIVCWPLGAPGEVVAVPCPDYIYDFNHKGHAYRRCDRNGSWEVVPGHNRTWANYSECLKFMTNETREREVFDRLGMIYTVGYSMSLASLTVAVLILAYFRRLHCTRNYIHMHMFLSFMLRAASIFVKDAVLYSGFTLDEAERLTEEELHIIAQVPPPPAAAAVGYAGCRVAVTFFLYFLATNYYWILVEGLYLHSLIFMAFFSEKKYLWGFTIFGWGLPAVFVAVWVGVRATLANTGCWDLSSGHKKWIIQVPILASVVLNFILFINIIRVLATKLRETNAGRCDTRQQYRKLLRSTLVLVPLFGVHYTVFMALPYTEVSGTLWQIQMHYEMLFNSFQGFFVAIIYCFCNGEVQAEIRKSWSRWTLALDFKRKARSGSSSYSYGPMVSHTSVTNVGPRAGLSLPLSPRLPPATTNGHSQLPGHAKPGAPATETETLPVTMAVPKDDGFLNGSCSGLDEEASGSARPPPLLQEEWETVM
Procedure: (1) Preparation of PTH receptor:
Rats, strain SD, male, weight 200-250 g, were decollated to bleed, laparotomized and excised of kidneys. A surface membrane was removed, and the renal cortex carved out and ice-cooled. The following operations should be carried out at a temperature as low as possible (0°-4° C.).
The renal cortex was immersed in a solution (hereinafter designated as solution A) of 10 mM Tris-HCl buffer (pH 7.5) containing 0.25 M sucrose and lmM EDTA. Three times the volume of solution A (ml) suspending the renal cortex (wet weight) was added to a renal cortex in a glass tube with Tefron (trade name) pestle and homogenized.
A homogenate was centrifuged for 10 minutes at 150×g, and the supernatant solution was further centrifuged for 15 mins. at 2200×g. The supernatant solution was discarded and the upper emulsion part of precipitate was suspended in a solution A. The said emulsion was centrifuged for 15 mins. at 2200×g. The precipitate was again suspended and frozen at -70° C. in a bottle stored at -20° C.
(2) Reaction with PTH and PTH-receptor:
Specimen was dissolved in 100 mM Tris-HCl buffer (ph 7.5) containing ATP-Mg 2 mM, MgCl2 10 mM, KCl 60 mM, GTP 20 μM, isobutyl methyl xanthine 1 mM, creatine phosphate 8 mM and bovine serum albumin (BSA) 0.2% to prepare 2 μg/ml and 10 μg/ml solutions. Standard bovine PTH(1-34) solution was also prepared in the same manner.
The above solutions [2 μg/ml and 10 μg/ml specimen] and bovine PTH(1-34) (50 μl) were each divided among eight glass test tubes, and kept in ice water in order to prevent ATP […] and to prepare test solutions. A stock solution of PTH receptor stored at -20° C. was thawed to room temperature. Creatine kinase, previously dissolved in solution A, was added thereto to prepare creatine kinase at 0.1 mg/ml and PTH receptor at 1.4 mg/ml as protein by adding solution A while keeping the solution in ice cooling. After the above test solutions were preincubated at 37° C. for several minutes, the PTH receptor-creatine kinase solution (each 50 μl) was added therein and incubated at 37° C. for 10 mins. 0.1 M acetate buffer (pH 4.0, 100 μl) was added, the mixture immediately placed in ice-water, and the tube heated in boiling water for one minute to stop the reaction.
(3) Assay of generated c-AMP:
Distilled water was added to the above reaction-stopped solution to 10-30 times dilution, and deproteinized by centrifugation for 15 mins. at 2000×g. An amount of c-AMP in a supernatant solution was assayed by RIA-kit (YASAMA SHOYU CO.)
(4) Determination of PTH activity:
The measured values of c-AMP hereinabove were converted to a unit of pM (pico mole)/mg PTH receptor-protein/minute as a designation of measured value. The measured value of the specimen was compared to the standard substance according to a parallel assay line two by two.

PTH receptors = assay: Affinity for PTH receptors (statement, no method given); assay type: binding; details: in words

[Nle^8, Nle^18 ]-h-PTH(1-34)
PTH / hormonal activity compared with natural h-PTH [1]: approximately equal to but no more than that of natural h-PTH

[Nle^8, Nle^18, Phe^34 ]-h-PTH(1-34)NH2
h-PTH activity, times stronger than known h-PTH(1-34) and [Nle8, Nle18]-h-PTH(1-34) (PTH receptor): 1.5-2 times | PTH Activity (PTH receptor): 5000 U/mg | affinity for PTH receptors compared with known h-PTH(1-34) and [Nle8, Nle18]-h-PTH(1-34) (PTH receptors): stronger affinity

[Nle^8, Nle^18, Tyr^34 ]-h-PTH(1-34)
PTH Activity After Labelling with 125I (PTH receptor): 2480 U/mg | PTH Activity (PTH receptor): 2930 U/mg | PTH / hormonal activity compared with natural h-PTH [1]: only approximately equal to that of natural h-PTH(1-34)

[Nle^8, Nle^18, Tyr^34 ]-h-PTH(1-34)NH2
PTH activity after labelling (in words) (PTH receptor; after labelling with iodine-125): retains its PTH activity after labelling | PTH Activity After Labelling with 125I (PTH receptor): 5000 U/mg | h-PTH activity, times stronger than known h-PTH(1-34) and [Nle8, Nle18]-h-PTH(1-34) (PTH receptor): 1.5-2 times | biological activity in long term storage (PTH receptor; labelled peptide, long term storage): retains its biological activity in long term storage | PTH Activity (PTH receptor): 5030 U/mg | affinity for PTH receptors compared with known h-PTH(1-34) and [Nle8, Nle18]-h-PTH(1-34) (PTH receptors): stronger affinity

h-PTH(1-34) (SVSEIQLMHNLGKHLNSMERVEWLRKKLQDVHNF; Parathyroid hormone; UniProt P01270 32-65, looked up, fragment) [34-amino acid N-terminal fragment of human parathyroid hormone]
hormonal activity when labelled with iodine-125 ([1]; methionine at position-8 and -18 is oxidized): loses hormonal activity

h-PTH(1-34)NH2
PTH Activity After Labelling with 125I (PTH receptor): > 150 U/mg | PTH Activity (PTH receptor): 5100 U/mg

h-PTH: sample of the activity table; human parathyroid hormone, probably the h-PTH(1-34) fragment labelled in b29
PTH Activity After Labelling with 125I (PTH receptor): > 100 U/mg | PTH Activity (PTH receptor): 3000 U/mg
